Legend:
[1] = target: E3 ubiquitin-protein ligase CBL (Homo sapiens) (UniProt P22681); test: Binding affinity to c-Cbl (unknown origin) assessed as dissociation constant by SPR assay
[2] = target: E3 ubiquitin-protein ligase CBL; test: Inhibition of c-Cbl (unknown origin) expressed in Escherichia coli measured for 90 mins by HTRF method
[3] = target: E3 ubiquitin-protein ligase CBL; test: Inhibition of c-Cbl (unknown origin) by TR-FRET assay
[4] = target: E3 ubiquitin-protein ligase CBL; test: Inhibition of c-Cbl (unknown origin) by HTRF method

| IC50 [2] | IC50 [4] | Compound | also measured |
| --- | --- | --- | --- |
| – | – | COCC1(NCc2cc3c(c(C(F)(F)F)c2)CN(c2cccc([C@]4(c5nncn5C)C[C@H](OC)C4)c2)C3=O)CC1 [2-(3-((1r,3r)-3-methoxy-1-(4-methyl-4H-1,2,4-triazol-3-yl)cyclobutyl)phenyl)-6-(((1-(methoxymethyl)cyclopropyl)amino)methyl)-4-(trifluoromethyl)isoindolin-1-one] | Kd [1]: 0.21 µM |
| 0.04 µM | – | CC(c1cc(C(=O)Nc2cccc([C@]3(c4nncn4C)C[C@@H](CC#N)C3)c2)nc2cc[nH]c12)N1CCC[C@H](C)C1 (stereo partly specified) | – |
| – | – | C[C@H]1CCCN(Cc2cc(C(F)(F)F)c3[nH]c(-c4cccc([C@]5(c6nncn6C)C[C@@H](C)C5)c4)nc3c2)C1 | IC50 [3]: > 10 µM |
| 0.01 µM | – | Cn1cnnc1[C@]1(c2cccc(NC(=O)c3cc(CN4CCC[C@H](C(F)F)C4)cn4ccnc34)c2)C[C@H](CC#N)C1 | – |
| – | 0.008 µM | CC(C)[C@H]1CN(C)CCN1Cc1cc(C(=O)Nc2cccc(C3([C@@H](F)c4nncn4C)CC(F)(F)C3)c2)nc(C2CC2)c1 | – |
| – | < 0.2 µM | Cn1cnnc1-c1cc(C#N)ccc1-c1cc(C2CC2)nc(N2Cc3c(cc(CNCC4(F)CCC4)cc3C(F)(F)F)C2=O)c1 | – |
